Measured values as given in US9018351B2, “Peptide aptamers against tenascin C” (Industry-Academy Cooperation Foundation, priority 2007, dated 2015).

Tests used:
tenascin C [1] = test: Immunofluorescence on frozen tumor xenograft tissue sections; format: binding, human; conditions: for staining of U118MG-derived tumor xenograft tissue sections: U118MG glioblastoma xenograft in nude mice, 10 μM biotin-labeled peptide or antibody 1:1000, O/N 4° C.
Experimental: FIGS. 4A-4C represent immunofluorescence detection for binding of #2 peptide aptamer to U118MG-derived tumor xenograft tissue. Frozen tissue sections were incubated at 4° C. for O/N with anti-tenascin C antibody (1:1000 dilution) (FIG. 4A), anti-β-catenin antibody (1:100 dilution) (FIG. 4B), 10 μM biotin-labeled peptide aptamer (#2) or scrambled peptide (#2 scr) (FIG. 4C). Tissues were counterstained with Hoechst33258. Arrows indicate examples of positively stained cells. Magnification, ×630. Results using a xenograft mouse model with HT-29 colon cancer cells are also shown (FIG. 4D).
A tumor xenograft was established by subcutaneous injection of 2×10^6 HT29 or U118MG cells into one flank of nude mice. When the tumor diameter reached approximately 9-10 mm, the mice were killed, and the tumor tissue was obtained and […] for storage at −80° C. Frozen sections 8-10 μm thick were cut, fixed with 3.7% paraformaldehyde for 15 min at room temperature, and permeabilized with 0.5% Triton X-100 in PBS. The cells were washed and blocked with 10% fetal bovine serum, 10% non fat dry milk and 3% BSA in PBS for 2 hrs at room temperature. They were stained with anti-tenascin C antibody (BC24; Sigma-Aldrich, Saint Louis, Miss., 1:1000 dilution), anti-β-catenin antibody (clone 14; BD Transduction Laboratories, Germany, 1:100 dilution), or biotin-labeled peptide for O/N at 4° C. Secondary FITC-conjugated anti-mouse IgG antibody (Sigma-Aldrich, Saint Louis, Miss., 1:1000 dilution) or TEXAS RED-conjugated streptavidin (Calbiochem, La Jolla, Calif., 1:1000 dilution) was used for 1 hr at room temperature in the dark. Cells were counterstained with Hoechst33258.

[2] = system: endogenously expressed tenascin C in the cultured cell lines; test: Immunocytochemistry of cultured cancer cell lines with biotin-labeled peptide; format: binding, human; conditions: 1 mM biotin-labeled peptide, 1 hr, room temperature; for staining of SW620 cells: SW620 (medium tenascin C expression)
Experimental: FIGS. 3A-3C represent binding pattern of the selected peptides to cultured cells. Cultured cells of SW620 (FIG. 3A), U251 (FIG. 3B) and HCT116 (FIG. 3C) were incubated at room temperature for 1 hr with 1 mM of biotin-labeled peptide aptamers (#1, #2), control peptide (NC), or peptide aptamer #2 (1 mM) plus anti-tenascin C antibody (1:1000 dilution). Nuclei were counterstained with Hoechst33258. Arrows indicate examples of positively stained cells. Magnification, ×1000 (FIG. 3A and FIG. 3C), ×630 (FIG. 3B). Cells were grown on coverslips, fixed with 3.7% paraformaldehyde for 15 min at room temperature, and permeabilized with 0.5% Triton X-100 in PBS. They were washed and blocked in 10% normal calf serum, 0.5% gelatin in PBS for 30 min at room temperature. Staining was carried out with biotin-labeled peptide for 1 hr at room temperature. Secondary TEXAS RED-conjugated streptavidin (Calbiochem, La Jolla, Calif., 1:200 dilution) was applied at room temperature for 50 min in the dark. The cells were counterstained with Hoechst33258. The present inventors utilized U251, SW620 and HCT116 cells as model cell lines for high, medium and no expression of tenascin C protein, respectively (FIG. 1). The biotin-labeled peptide aptamers were used to test whether they recognized the endogenously expressed tenascin C in the cultured cell lines. […] There was no signal with the negative peptide or when aptamer was omitted. Since the peptide aptamer #2 have high frequency and observed a higher level of staining, we used it in subsequent work. The level of staining with U251 cells was higher than with SW620 cells, which may reflect a higher level of tenascin C expression.

[3] = system: tenascin C-induced cell migration, U118MG cells; test: Wound scratch assay; format: cell-based, human; conditions: serum free medium, 18 hrs
Experimental: (§1) FIGS. 6A-6D represent reversion of tenascin-C-induced cell morphology and migration by the peptide aptamer. […] Magnification, ×100. FIG. 6B was the results that numbers of round cell was scored and presented as percentage. Four independent experiments were performed. FIG. 6C represented U118MG migration with #2 peptides or scrambled peptides. The data are representative of three independent experiments. SD, P<0.001 relative to no treated samples. […] Whole cell extract were prepared and with anti-β-catenin antibody. Anti-β-actin was used as control.
U118MG cells were grown until they become confluent on a 35 mm dish and were serum starved for 18 hrs in DMEM. A straight line was drawn with a marker on the outer surface of the dish bottom and an artificial wound was made by using a pipet tip. The dish was rinsed and then incubated with the serum free medium in the presence of #2 peptides or #2 scramble peptides. After 18 hrs incubation, cells were counted.

[4] = system: tenascin C-induced cell rounding; test: Adhesion assay on fibronectin/tenascin C substratum; format: cell-based, human; conditions: glioblastoma cells on fibronectin/tenascin C substratum, 18 hrs
Experimental: as §1
Microtiter plates (6-well, Nunc, Roskilde, Denmark) were coated with 1 μg/cm^2 of fibrobectin or fibronectin and tenascin C for overnight at 4° C. The noncoated plastic surface was blocked with 1% heat-inactivated BSA in PBS. Before plating, cells were serum starved for 18 hrs in DMEM and trypsinized. Following soybean trypsin inhibitor treatment (100 μg/ml in PBS), cells were resuspended in serum-free medium and counted by hematocytometer. Approximately 1×10^5 cells were plated in each well and the selected peptide aptamer or scramble peptide was treated for 18 hrs, cells were observed under microscope.

tenascin C [5] = target: T1, tenascin C (Homo sapiens, UniProt P24821); test: Immunofluorescence analysis of lung tissue microarray; format: binding
T1 construct: a tissue microarray prepared with tissues from 52 lung cancer patients; from tissue; host or cells: paraffin-embedded human lung tumor and normal lung tissue (Seoul National University Bundang Hospital)
Experimental: FIGS. 5A-5D represent detection for binding of peptide aptamer #2 to tumor patient lung tissue. Paraffin-embedded lung tissue from an adenocarcinoma (FIG. 5A), squamous cell carcinoma (FIG. 5B), bronchioloalveolar carcinoma (FIG. 5C) and normal (FIG. 5D) tissue was incubated at 4° C. for O/N with anti-tenascin C antibody (1:1000 dilution) or with biotin-labeled peptide aptamer #2 (10 μM). Tissues were counterstained with Hoechst33258. Magnification, ×630.
The lung tissue microarray was constructed from archived paraffin blocks at Seoul National University Bundang Hospital. It is composed of 36 adenocarcinomas, 15 squamous cell carcinomas, 1 bronchioloalveolar carcinoma, and 1 normal lung. Sections were dewaxed in xylene and rehydrated in graded concentrations of ethanol and distilled water. For antigen retrieval, sections were heated for 20 min in Target Retrieval Solution, Tris/EDTA (pH 9; Dako) using a pressure cooker. Staining was carried out with anti-tenascin C antibody (BC24; Sigma-aldrich, Saint Louis, Mo., 1:1000 dilution) or biotin-labeled peptide for O/N at 4° C. Secondary anti-mouse FITC-conjugated IgG antibody or TEXAS RED-conjugated streptavidin was used for 1 hr at room temperature in the dark. Cells were counterstained with Hoechst33258.

T1 sequence (P24821 23-2201): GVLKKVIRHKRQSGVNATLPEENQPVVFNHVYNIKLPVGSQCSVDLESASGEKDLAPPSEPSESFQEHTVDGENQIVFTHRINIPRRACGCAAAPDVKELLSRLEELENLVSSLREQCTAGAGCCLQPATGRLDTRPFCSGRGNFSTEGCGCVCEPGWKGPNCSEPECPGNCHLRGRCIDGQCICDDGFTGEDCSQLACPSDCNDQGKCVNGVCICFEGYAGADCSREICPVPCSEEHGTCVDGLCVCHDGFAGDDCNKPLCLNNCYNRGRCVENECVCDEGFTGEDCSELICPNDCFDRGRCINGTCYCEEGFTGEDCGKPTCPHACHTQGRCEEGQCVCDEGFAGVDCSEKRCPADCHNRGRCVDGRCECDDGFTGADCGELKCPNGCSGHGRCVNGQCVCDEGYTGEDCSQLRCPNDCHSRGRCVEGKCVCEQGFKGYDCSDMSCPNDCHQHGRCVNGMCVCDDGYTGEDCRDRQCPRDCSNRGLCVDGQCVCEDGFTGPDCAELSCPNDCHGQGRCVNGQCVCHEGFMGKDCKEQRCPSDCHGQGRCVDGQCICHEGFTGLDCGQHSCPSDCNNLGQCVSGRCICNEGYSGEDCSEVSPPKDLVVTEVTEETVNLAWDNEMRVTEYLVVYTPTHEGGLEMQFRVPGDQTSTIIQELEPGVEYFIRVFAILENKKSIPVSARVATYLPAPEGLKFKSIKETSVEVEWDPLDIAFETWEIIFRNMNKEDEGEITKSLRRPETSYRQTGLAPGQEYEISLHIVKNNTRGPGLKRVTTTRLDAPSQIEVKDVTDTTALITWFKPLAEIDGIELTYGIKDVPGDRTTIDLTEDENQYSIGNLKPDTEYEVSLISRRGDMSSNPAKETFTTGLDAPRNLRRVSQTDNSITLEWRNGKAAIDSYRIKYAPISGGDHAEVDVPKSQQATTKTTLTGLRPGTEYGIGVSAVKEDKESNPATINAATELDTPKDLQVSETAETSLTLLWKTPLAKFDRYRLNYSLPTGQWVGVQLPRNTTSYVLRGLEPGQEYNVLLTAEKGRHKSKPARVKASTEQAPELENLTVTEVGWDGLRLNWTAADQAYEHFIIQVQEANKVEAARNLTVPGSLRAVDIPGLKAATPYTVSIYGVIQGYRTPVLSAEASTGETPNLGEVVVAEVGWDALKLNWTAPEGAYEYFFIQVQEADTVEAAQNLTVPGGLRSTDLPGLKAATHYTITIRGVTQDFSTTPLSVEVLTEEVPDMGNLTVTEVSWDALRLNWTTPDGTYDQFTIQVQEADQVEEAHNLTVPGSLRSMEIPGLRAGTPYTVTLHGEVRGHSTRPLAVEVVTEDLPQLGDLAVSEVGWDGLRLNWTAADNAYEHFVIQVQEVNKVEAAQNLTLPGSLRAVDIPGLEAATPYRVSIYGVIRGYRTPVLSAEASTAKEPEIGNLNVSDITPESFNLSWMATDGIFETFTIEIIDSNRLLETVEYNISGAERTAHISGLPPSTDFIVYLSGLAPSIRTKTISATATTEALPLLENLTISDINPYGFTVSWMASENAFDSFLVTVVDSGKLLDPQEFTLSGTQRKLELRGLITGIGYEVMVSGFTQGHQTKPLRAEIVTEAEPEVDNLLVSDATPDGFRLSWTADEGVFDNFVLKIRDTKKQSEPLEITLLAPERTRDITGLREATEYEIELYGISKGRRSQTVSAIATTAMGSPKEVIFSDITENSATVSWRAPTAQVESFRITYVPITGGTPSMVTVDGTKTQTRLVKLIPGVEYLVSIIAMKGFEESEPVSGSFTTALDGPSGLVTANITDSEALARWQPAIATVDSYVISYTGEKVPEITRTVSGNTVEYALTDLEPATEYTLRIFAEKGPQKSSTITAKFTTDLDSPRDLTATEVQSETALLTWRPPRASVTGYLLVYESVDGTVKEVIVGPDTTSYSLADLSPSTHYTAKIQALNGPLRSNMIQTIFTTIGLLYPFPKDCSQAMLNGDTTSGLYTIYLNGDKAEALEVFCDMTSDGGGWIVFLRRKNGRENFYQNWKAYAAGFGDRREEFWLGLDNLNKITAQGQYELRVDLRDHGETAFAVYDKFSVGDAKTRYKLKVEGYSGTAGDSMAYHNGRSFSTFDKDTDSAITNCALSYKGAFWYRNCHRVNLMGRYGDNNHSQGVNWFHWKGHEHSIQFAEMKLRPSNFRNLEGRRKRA

Sequence | staining of HT-29 tumor xenograft tissue sections (tenascin C [1]; HT-29 colon cancer xenograft (does not express tenascin C)) | staining of U118MG-derived tumor xenograft tissue sections (tenascin C [1]) | staining of HCT116 cells ([2]; HCT116 (no tenascin C expression)) | staining of SW620 cells [2] | staining of U251 cells ([2]; U251 (high tenascin C expression)) | effect on tenascin C-induced cell migration [3] | effect on tenascin C-induced rounding morphology [4] | staining of normal lung tissue (tenascin C [5]; 1 normal lung, 10 μM biotin-labeled peptide, O/N 4° C.) | staining of lung cancer patient tissues (tenascin C [5]; 52 lung cancer patients, 10 μM biotin-labeled peptide or antibody 1:1000, O/N 4° C.)
FHKHKSPALSPVGGG [peptide aptamer #2] | no aptamer signal was detected | same prominent pattern of staining in the forms of spots and blobs | no signal was detected | characteristic staining pattern of spots or long streaks in a polarized region of the plasma membrane | stained two distinct areas of the U251 cells | significantly reduced | significant reversion of tenascin C-induced rounding morphology | No peptide aptamer #2 staining was detected | striking similarity of the staining patterns
FHKPFFPKGSARGGG [peptide aptamer #1] | – | – | – | characteristic staining pattern of spots or long streaks in a polarized region of the plasma membrane | – | – | – | – | –
VSPKSHLKAHPFGGG [#2 scramble, scrambled form of peptide #2, control, reference compound] | – | no significant staining | – | – | – | No significant reduction in cell migration | no significant change | – | –
